The source of these data is publication PMC5854577, “A common mechanism of proteasome impairment by neurodegenerative disease-associated oligomers” (Nature Communications, 2018).

Starred links: 1 amine or outer side, 2 acyl side, 3 side chain; linkers in the order of their positions; H or OH if unused. Residues, ends and D or L forms follow the SMILES beside them. *: point of attachment. AMC = Cc1cc(=O)oc2cc(N*)ccc12; Suc = O=C(CCC(=O)[*:2])[*:1]

The target of the test is T1, Mammalian 20S proteasome (bovine 20S) (Bos taurus, UniProt Q32KL2+Q3MHN0+Q3T0X5+Q5E987).
T1 construct: gene PSMB5; with Proteasome subunit beta type-1; Proteasome subunit beta type-2; Proteasome subunit beta type-3; Proteasome subunit beta type-4
As to the kind of experiment: fluorogenic peptide hydrolysis. The test is classed as biochemical. As to conditions: chymotrypsin-like activity; 100 uM substrate, pH 7.4.

Turning to `Cc1cc(=O)oc2cc(NC(=O)[C@H](Cc3ccc(O)cc3)NC(=O)[C@@H](NC(=O)[C@H](CC(C)C)NC(=O)[C@H](CC(C)C)NC(=O)CCC(=O)O)C(C)C)ccc12` [suc-LLVY-amc] (Suc-LLVY-{AMC}), the fluorogenic peptide hydrolysis result is given as “Proteasome activity (linear rate of LLVY-amc hydrolysis)”.
